Columns and labels:
barnyardgrass [1] = assay: Test A pre-/postemergence herbicide test; assay type: in vivo, Echinochloa crus-galli; settings: for Barnyardgrass plant response rating: Preemergence, visual rating on 0 to 100 scale (0 no effect, 100 complete control)
Summary of the method: (§1)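 Formulated compound (non-phytotoxic solvent, surfactant) sprayed pre- onto soil of seeded loam/sand pots or post- onto seedlings at 1–2 leaves; ~10 d greenhouse; 0–100 visual control rating versus untreated.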

crabgrass, large = assay: Test A pre-/postemergence herbicide test; assay type: in vivo, Digitaria sanguinalis; settings: for Crabgrass, Large plant response rating: Preemergence, visual rating on 0 to 100 scale (0 no effect, 100 complete control)
Summary of the method: as §1

giant foxtail = assay: Test A pre-/postemergence herbicide test; assay type: in vivo, Setaria faberii; settings: for Foxtail, Giant plant response rating: Preemergence, visual rating on 0 to 100 scale (0 no effect, 100 complete control)
Summary of the method: as §1

morningglory = assay: Test A pre-/postemergence herbicide test; assay type: in vivo, Ipomoea spp.; settings: for Morningglory plant response rating: Preemergence, visual rating on 0 to 100 scale (0 no effect, 100 complete control)
Summary of the method: as §1

pigweed = assay: Test A pre-/postemergence herbicide test; assay type: in vivo, Amaranthus retroflexus; settings: for Pigweed plant response rating: Preemergence, visual rating on 0 to 100 scale (0 no effect, 100 complete control)
Summary of the method: as §1

velvetleaf = assay: Test A pre-/postemergence herbicide test; assay type: in vivo, Abutilon theophrasti; settings: for Velvetleaf plant response rating: Preemergence, visual rating on 0 to 100 scale (0 no effect, 100 complete control)
Summary of the method: as §1

wheat = assay: Test A pre-/postemergence herbicide test; assay type: in vivo, Triticum aestivum; settings: for Wheat plant response rating: Preemergence, visual rating on 0 to 100 scale (0 no effect, 100 complete control)
Summary of the method: as §1

corn = assay: Test A pre-/postemergence herbicide test; assay type: in vivo, Zea mays; settings: for Corn plant response rating: Preemergence, visual rating on 0 to 100 scale (0 no effect, 100 complete control)
Summary of the method: as §1

rice = assay: Test B flooded paddy test; assay type: in vivo, Oryza sativa; settings: 250 g ai/ha, Flood; scale of 0 to 100 where 0 is no effect and 100 is complete control
Summary of the method: (§2)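 Plants grown to 2-leaf stage; pots flooded 3 cm above soil and compound applied directly into paddy water, depth held throughout. Visual rating against untreated controls after 13 to 15 days in greenhouse, 0 (no effect) to 100 (complete control).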

sedge, umbrella = assay: Test B flooded paddy test; assay type: in vivo, Cyperus difformis; settings: 250 g ai/ha, Flood; scale of 0 to 100 where 0 is no effect and 100 is complete control
Summary of the method: as §2

ducksalad = assay: Test B flooded paddy test; assay type: in vivo, Heteranthera limosa; settings: 250 g ai/ha, Flood; scale of 0 to 100 where 0 is no effect and 100 is complete control
Summary of the method: as §2

barnyardgrass [2] = assay: Test B flooded paddy test; assay type: in vivo, Echinochloa crus-galli; settings: 250 g ai/ha, Flood; scale of 0 to 100 where 0 is no effect and 100 is complete control
Summary of the method: as §2

[3] = Postemergence, 125 g ai/ha, 0 to 100 scale, 0 no effect, 100 complete control
[4] = Postemergence, 500 g ai/ha, 0 to 100 scale (0 no effect, 100 complete control)
[5] = preemergence, 500 g ai/ha, 0 to 100 scale (0 no effect, 100 complete control)
[6] = preemergence, 500 g ai/ha, 0 to 100 scale

Row | SMILES | Plant response rating, Barnyardgrass (barnyardgrass [1]; [3]) | Plant response rating, Barnyardgrass (barnyardgrass [1]; [4]) | Barnyardgrass plant response rating (barnyardgrass [1]; 125 g ai/ha) | Plant response rating, Barnyardgrass (barnyardgrass [1]; [5]) | Plant response rating, Crabgrass, Large (crabgrass, large; [3]) | Plant response rating, Crabgrass, Large (crabgrass, large; [4]) | Crabgrass, Large plant response rating (crabgrass, large; 125 g ai/ha) | Plant response rating, Crabgrass, Large (crabgrass, large; [6]) | Plant response rating, Foxtail, Giant (giant foxtail; [3]) | Plant response rating, Foxtail, Giant (giant foxtail; [4]) | Foxtail, Giant plant response rating (giant foxtail; 125 g ai/ha) | Plant response rating, Foxtail, Giant (giant foxtail; [6]) | Plant response rating, Morningglory (morningglory; [3]) | Plant response rating, Morningglory (morningglory; [4]) | Morningglory plant response rating (morningglory; 125 g ai/ha) | Plant response rating, Morningglory (morningglory; [6]) | Plant response rating, Pigweed (pigweed; [3]) | Plant response rating, Pigweed (pigweed; [4]) | Pigweed plant response rating (pigweed; 125 g ai/ha) | Plant response rating, Pigweed (pigweed; [6]) | also measured
1 | O=C1NCC(c2ccc(F)c(F)c2)C1C(=O)Nc1cccc[n+]1[O-] (stereo not shown) [Compound 47] | 0 | 0 | 0 | 0 | 0 | 0 | 10 | 60 | 0 | 0 | 0 | 0 | 0 | 20 | 0 | 0 | 0 | 0 | 0 | 0 | Plant response rating, Velvetleaf (velvetleaf; [3]): 0; Plant response rating, Velvetleaf (velvetleaf; [4]): 0; Velvetleaf plant response rating (velvetleaf; 125 g ai/ha): 0; Plant response rating, Velvetleaf (velvetleaf; [6]): 0; Plant response rating, Wheat (wheat; [3]): 0; Plant response rating, Wheat (wheat; [4]): 0; Wheat plant response rating (wheat; 125 g ai/ha): 0; Plant response rating, Wheat (wheat; [6]): 0; Corn plant response rating (corn; 125 g ai/ha): 0; Plant response rating, Corn (corn; [6]): 0; Plant response rating, Rice (rice): 0; Plant response rating, Sedge, Umbrella (sedge, umbrella): 0; Plant response rating, Ducksalad (ducksalad): 0; Plant response rating, Barnyardgrass (barnyardgrass [2]): 0
2 | O=C1NCC(c2cc(F)c(F)c(F)c2)C1C(=O)Nc1cccc([N+](=O)[O-])c1 (stereo not shown) [Compound 49] | 0 | 20 | 0 | 20 | 20 | 70 | 70 | 90 | 0 | 40 | 20 | 70 | 0 | 0 | 0 | 0 | 0 | 0 | 0 | 0 | Plant response rating, Velvetleaf (velvetleaf; [3]): 0; Plant response rating, Velvetleaf (velvetleaf; [4]): 0; Velvetleaf plant response rating (velvetleaf; 125 g ai/ha): 0; Plant response rating, Velvetleaf (velvetleaf; [6]): 0; Plant response rating, Wheat (wheat; [3]): 0; Plant response rating, Wheat (wheat; [4]): 0; Wheat plant response rating (wheat; 125 g ai/ha): 0; Plant response rating, Wheat (wheat; [6]): 0; Plant response rating, Corn (corn; [3]): 0; Plant response rating, Corn (corn; [4]): 0; Corn plant response rating (corn; 125 g ai/ha): 0; Plant response rating, Corn (corn; [6]): 0; Plant response rating, Rice (rice): 0; Plant response rating, Sedge, Umbrella (sedge, umbrella): 40; Plant response rating, Ducksalad (ducksalad): 70; Plant response rating, Barnyardgrass (barnyardgrass [2]): 0
3 | O=C1NCC(c2cc(F)c(F)cc2F)C1C(=O)Nc1ccccc1F (stereo not shown) [Compound 51] | 0 | 20 | 0 | 0 | 20 | 80 | 90 | 90 | 0 | 30 | 30 | 90 | 0 | 0 | 0 | 0 | 0 | 0 | 0 | 0 | Plant response rating, Velvetleaf (velvetleaf; [3]): 0; Plant response rating, Velvetleaf (velvetleaf; [4]): 0; Velvetleaf plant response rating (velvetleaf; 125 g ai/ha): 0; Plant response rating, Velvetleaf (velvetleaf; [6]): 0; Plant response rating, Wheat (wheat; [3]): 0; Plant response rating, Wheat (wheat; [4]): 0; Wheat plant response rating (wheat; 125 g ai/ha): 0; Plant response rating, Wheat (wheat; [6]): 0; Plant response rating, Corn (corn; [3]): 0; Plant response rating, Corn (corn; [4]): 0; Corn plant response rating (corn; 125 g ai/ha): 0; Plant response rating, Corn (corn; [6]): 0; Plant response rating, Rice (rice): 15; Plant response rating, Sedge, Umbrella (sedge, umbrella): 45; Plant response rating, Ducksalad (ducksalad): 80; Plant response rating, Barnyardgrass (barnyardgrass [2]): 20
